Reference: the supplement of paper PMC11208160

Test: recombinant UMI read abundance after kanamycin selection (control-corrected) (log10(CPM+1)); higher = more efficient recombination; extreme values may be limits of the assay; sequences stand for … in AGTGCAGAGAAAATCGGCCAGTTTTCTCTGCCTGCAGTCCGCATGCCGTGGGACCCCTTGGGTTCTAACCTGTTGCCTAGATTTATGCAGCGGACTGCCTTTCTCCCAAAGTGATAAACCGG…AGGTTGGTTTCACT; site = the 11-nt donor
Procedure, shortened: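 Reported values are log10(CPM+1) from a pooled Escherichia coli screen of donor and donor-binding-loop pairs for the IS621 bridge recombinase. Selection used IPTG (0.07 mM) plus kanamycin, against unselected plating, each in two replicates. Recombinant UMIs were amplified across the donor–target junction, sequenced, converted to CPM, averaged over replicates and scaled by control-derived factors.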
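Further: IS621 bridge recombinase in Escherichia coli cells against a fixed T5 target plasmid.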

Sequence | recombinant UMI read abundance (log10)
GTTGCCTCATGGACCGGTTTTCCCGGTAATCCGTATTTGGA (site GTTGCCTCTTC) | 1.21
GTTGCTCCATGGACCGGTTTTCCCGGTAATCCGTATTTGGT (site GTTGATCCTAC) | 0
GTTGCTCCATGGACCGGTTTTCCCGGTAATCCGTATTTGGT (site GTTGCTCCTAC) | 0.00908
GTTGCTCCATGGACCGGTTTTCCCGGTAATCCGTATTTGGT (site GTTGGTCCTAC) | 0.0466
GTTGCTCCATGGACCGGTTTTCCCGGTAATCCGTATTTGGT (site GTTGTTCCTAC) | 0.0159
GTTGCTGCATGGACCGGTTTTCCCGGTAATCCGTATTTGGC (site GTTGCTGCTGC) | 0.902
GTTGGAACATGGACCGGTTTTCCCGGTAATCCGTATTTGGC (site GTTAGAACTGC) | 1.13
GTTGGAACATGGACCGGTTTTCCCGGTAATCCGTATTTGGC (site GTTCGAACTGC) | 0
GTTGGAACATGGACCGGTTTTCCCGGTAATCCGTATTTGGC (site GTTGGAACTGC) | 2.55
GTTGGAACATGGACCGGTTTTCCCGGTAATCCGTATTTGGC (site GTTTGAACTGC) | 0
GTTGGAGCATGGACCGGTTTTCCCGGTAATCCGTATTTGCA (site GTTAGAGCTTG) | 2.17
GTTGGAGCATGGACCGGTTTTCCCGGTAATCCGTATTTGCA (site GTTCGAGCTTG) | 0
GTTGGAGCATGGACCGGTTTTCCCGGTAATCCGTATTTGCA (site GTTGGAGCTTG) | 2.49
GTTGGAGCATGGACCGGTTTTCCCGGTAATCCGTATTTGCA (site GTTTGAGCTTG) | 0.659
GTTGGTCCATGGACCGGTTTTCCCGGTAATCCGTATTTGGT (site GTTGATCCTAC) | 0.0104
GTTGGTCCATGGACCGGTTTTCCCGGTAATCCGTATTTGGT (site GTTGCTCCTAC) | 0.00872

Sequence | recombinant UMI read abundance (log10)
GTTGGTCCATGGACCGGTTTTCCCGGTAATCCGTATTTGGT (site GTTGGTCCTAC) | 0.0121
GTTGGTCCATGGACCGGTTTTCCCGGTAATCCGTATTTGGT (site GTTGTTCCTAC) | 0.00359
GTTGTTCCATGGACCGGTTTTCCCGGTAATCCGTATTTGGA (site GTTGTTCCTAC) | 0
GTTGTTCCATGGACCGGTTTTCCCGGTAATCCGTATTTGGA (site GTTGTTCCTCC) | 0.00995
GTTGTTCCATGGACCGGTTTTCCCGGTAATCCGTATTTGGA (site GTTGTTCCTGC) | 0
GTTGTTCCATGGACCGGTTTTCCCGGTAATCCGTATTTGGA (site GTTGTTCCTTC) | 0.0132
GTTTAGCCATGGACCGGTTTTCCCGGTAATCCGTATTTGGC (site GTTTAGCCTGC) | 0
GTTTATCCATGGACCGGTTTTCCCGGTAATCCGTATTTGCT (site GATTATCCTAG) | 0
GTTTATCCATGGACCGGTTTTCCCGGTAATCCGTATTTGCT (site GCTTATCCTAG) | 0
GTTTATCCATGGACCGGTTTTCCCGGTAATCCGTATTTGCT (site GGTTATCCTAG) | 0
GTTTATCCATGGACCGGTTTTCCCGGTAATCCGTATTTGCT (site GTTTATCCTAG) | 0.492
GTTTCGGCATGGACCGGTTTTCCCGGTAATCCGTATTTGGG (site CGGGGCACTAA) | 0.0198
GTTTGAACATGGACCGGTTTTCCCGGTAATCCGTATTTGGC (site GTTAGAACTGC) | 0
GTTTGAACATGGACCGGTTTTCCCGGTAATCCGTATTTGGC (site GTTCGAACTGC) | 0
GTTTGAACATGGACCGGTTTTCCCGGTAATCCGTATTTGGC (site GTTGGAACTGC) | 0
GTTTGAACATGGACCGGTTTTCCCGGTAATCCGTATTTGGC (site GTTTGAACTGC) | 0
